Experimental data reported in ChEMBL document CHEMBL5465560, “Selectivity Literature for EUbOPEN Chemogenomic Library” (2024).
Values belong to the compound of their own block, whether it stands above or below them.

What was measured:
[1] = biological target: Ephrin type-A receptor 7 (Homo sapiens) (UniProt Q15375); test: Selectivity interaction (KinomeScan (DiscoverX)) EUB0001049a EPHA7; conditions: at 1 µM
[2] = biological target: Serine/threonine-protein kinase B-raf (Homo sapiens) (UniProt P15056); test: Selectivity interaction (Kinase panel (Invitrogen)) EUB0000639a BRAF; conditions: at 200 nM
Chain of Serine/threonine-protein kinase B-raf (Homo sapiens) (P15056 whole entry): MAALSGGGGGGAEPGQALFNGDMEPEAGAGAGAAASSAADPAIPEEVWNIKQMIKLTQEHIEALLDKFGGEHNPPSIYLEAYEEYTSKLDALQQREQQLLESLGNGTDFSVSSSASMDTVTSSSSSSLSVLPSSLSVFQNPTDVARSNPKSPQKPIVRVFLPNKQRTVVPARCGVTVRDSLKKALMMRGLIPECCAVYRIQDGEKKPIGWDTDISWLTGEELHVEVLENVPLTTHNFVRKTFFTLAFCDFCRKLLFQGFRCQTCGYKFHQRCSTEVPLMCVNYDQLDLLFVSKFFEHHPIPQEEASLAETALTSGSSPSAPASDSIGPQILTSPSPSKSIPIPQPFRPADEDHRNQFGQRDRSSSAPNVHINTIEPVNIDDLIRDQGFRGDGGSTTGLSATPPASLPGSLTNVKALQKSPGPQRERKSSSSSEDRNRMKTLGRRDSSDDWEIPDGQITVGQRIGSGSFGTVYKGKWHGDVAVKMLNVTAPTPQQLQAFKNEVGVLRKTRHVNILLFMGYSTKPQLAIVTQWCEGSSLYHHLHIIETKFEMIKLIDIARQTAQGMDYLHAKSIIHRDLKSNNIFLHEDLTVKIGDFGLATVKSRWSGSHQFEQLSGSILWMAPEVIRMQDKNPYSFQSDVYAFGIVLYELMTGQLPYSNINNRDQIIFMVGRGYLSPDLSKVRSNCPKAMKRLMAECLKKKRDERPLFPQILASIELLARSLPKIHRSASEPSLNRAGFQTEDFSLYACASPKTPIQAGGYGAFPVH

[3] = biological target: T1, Tyrosine-protein kinase Tec (Homo sapiens) (UniProt P42680); test: Selectivity interaction (ActivX KiNativ screen (kinase selectivity in THP-1 cell lysates)) EUB0000639a TEC; type: subcellular; conditions: lysate
T1 sequence (whole entry): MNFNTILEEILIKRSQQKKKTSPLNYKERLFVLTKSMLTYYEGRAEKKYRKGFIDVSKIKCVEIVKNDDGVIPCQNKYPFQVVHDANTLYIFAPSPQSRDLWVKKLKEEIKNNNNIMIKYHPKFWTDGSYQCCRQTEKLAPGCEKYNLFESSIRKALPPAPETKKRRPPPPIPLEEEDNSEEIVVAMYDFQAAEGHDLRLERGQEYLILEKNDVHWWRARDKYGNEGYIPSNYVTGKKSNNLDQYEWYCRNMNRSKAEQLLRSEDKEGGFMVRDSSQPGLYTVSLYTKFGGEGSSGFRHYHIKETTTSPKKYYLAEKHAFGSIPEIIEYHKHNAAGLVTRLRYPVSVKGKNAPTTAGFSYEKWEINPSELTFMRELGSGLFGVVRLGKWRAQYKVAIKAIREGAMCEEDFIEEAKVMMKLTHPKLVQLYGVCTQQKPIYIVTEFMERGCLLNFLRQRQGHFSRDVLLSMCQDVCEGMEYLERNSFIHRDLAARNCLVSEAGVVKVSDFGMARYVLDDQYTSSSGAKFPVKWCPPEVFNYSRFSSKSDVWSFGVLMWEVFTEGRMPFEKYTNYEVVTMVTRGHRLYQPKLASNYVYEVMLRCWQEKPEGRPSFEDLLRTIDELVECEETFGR

[4] = biological target: Serine/threonine-protein kinase MARK2 (Homo sapiens) (UniProt Q7KZI7); test: Selectivity interaction (ActivX KiNativ screen (kinase selectivity in THP-1 cell lysates)) EUB0000639a MARK2; type: subcellular; conditions: lysate, at 1 µM
[5] = biological target: Dual specificity tyrosine-phosphorylation-regulated kinase 1B (Homo sapiens, UniProt Q9Y463); test: Selectivity interaction (Kinase panel (Z-LYTE Assay)) EUB0001632a DYRK1B; conditions: at 10 µM
[6] = biological target: Mitogen-activated protein kinase kinase kinase 10 (Homo sapiens) (UniProt Q02779); conditions: at 10 µM
[7] = biological target: T2, Interleukin-1 receptor-associated kinase 4 (Homo sapiens) (UniProt Q9NWZ3); test: Selectivity interaction (KinomeScan (DiscoverX)) EUB0000229b IRAK4; conditions: at 10 µM
T2 sequence (whole entry): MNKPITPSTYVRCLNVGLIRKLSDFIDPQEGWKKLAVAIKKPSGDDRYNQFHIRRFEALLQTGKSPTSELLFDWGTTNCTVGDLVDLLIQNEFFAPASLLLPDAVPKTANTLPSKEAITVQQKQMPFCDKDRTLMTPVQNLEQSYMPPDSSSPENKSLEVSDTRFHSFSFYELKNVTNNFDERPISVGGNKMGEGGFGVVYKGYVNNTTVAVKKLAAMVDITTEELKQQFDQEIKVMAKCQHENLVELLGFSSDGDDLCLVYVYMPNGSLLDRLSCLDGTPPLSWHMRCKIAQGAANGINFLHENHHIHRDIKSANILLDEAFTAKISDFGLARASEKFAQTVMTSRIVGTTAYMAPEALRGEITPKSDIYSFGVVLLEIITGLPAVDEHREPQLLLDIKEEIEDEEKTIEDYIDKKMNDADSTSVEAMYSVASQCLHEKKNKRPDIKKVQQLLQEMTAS

[8] = biological target: Casein kinase I isoform epsilon (Homo sapiens, UniProt P49674); test: Selectivity interaction (KinomeScan (DiscoverX)) EUB0001079a CSNK1E; conditions: at 1 µM
Chain of Casein kinase I isoform epsilon (P49674 whole entry, looked up, canonical isoform): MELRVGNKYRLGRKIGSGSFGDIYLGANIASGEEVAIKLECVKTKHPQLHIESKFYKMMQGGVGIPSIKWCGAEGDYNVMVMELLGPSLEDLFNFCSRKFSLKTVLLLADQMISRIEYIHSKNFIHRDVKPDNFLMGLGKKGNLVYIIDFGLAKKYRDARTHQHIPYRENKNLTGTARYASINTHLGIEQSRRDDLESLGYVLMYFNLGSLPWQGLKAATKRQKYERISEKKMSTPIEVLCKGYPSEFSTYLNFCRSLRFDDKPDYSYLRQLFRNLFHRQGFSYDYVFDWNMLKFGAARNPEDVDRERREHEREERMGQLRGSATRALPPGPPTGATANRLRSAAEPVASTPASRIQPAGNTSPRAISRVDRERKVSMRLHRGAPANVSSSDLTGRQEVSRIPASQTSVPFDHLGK

[9] = biological target: T3, Tyrosine-protein kinase ITK/TSK (Homo sapiens) (UniProt Q08881); test: Selectivity interaction (ProQinase) EUB0000171b ITK
T3 sequence (whole entry): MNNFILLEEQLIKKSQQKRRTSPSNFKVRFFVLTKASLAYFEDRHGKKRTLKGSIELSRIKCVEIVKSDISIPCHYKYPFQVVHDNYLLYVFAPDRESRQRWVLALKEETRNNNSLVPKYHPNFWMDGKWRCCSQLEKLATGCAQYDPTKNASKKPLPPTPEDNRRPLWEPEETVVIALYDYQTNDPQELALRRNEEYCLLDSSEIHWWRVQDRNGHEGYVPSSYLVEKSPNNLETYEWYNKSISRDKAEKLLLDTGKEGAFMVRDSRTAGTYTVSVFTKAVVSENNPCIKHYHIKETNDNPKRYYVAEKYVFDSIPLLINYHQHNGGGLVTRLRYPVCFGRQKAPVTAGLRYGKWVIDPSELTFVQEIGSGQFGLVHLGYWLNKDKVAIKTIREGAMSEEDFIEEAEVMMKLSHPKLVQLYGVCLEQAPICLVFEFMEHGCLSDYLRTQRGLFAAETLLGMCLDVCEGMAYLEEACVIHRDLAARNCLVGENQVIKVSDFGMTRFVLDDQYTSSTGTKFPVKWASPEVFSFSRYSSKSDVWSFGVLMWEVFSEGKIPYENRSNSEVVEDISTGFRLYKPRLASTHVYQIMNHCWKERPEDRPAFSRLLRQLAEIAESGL

[10] = biological target: RAC-beta serine/threonine-protein kinase (Homo sapiens) (UniProt P31751); test: Selectivity interaction (KinomeScan (DiscoverX)) EUB0000092b AKT2; conditions: at 10 µM
Chain of RAC-beta serine/threonine-protein kinase (Homo sapiens) (P31751 whole entry): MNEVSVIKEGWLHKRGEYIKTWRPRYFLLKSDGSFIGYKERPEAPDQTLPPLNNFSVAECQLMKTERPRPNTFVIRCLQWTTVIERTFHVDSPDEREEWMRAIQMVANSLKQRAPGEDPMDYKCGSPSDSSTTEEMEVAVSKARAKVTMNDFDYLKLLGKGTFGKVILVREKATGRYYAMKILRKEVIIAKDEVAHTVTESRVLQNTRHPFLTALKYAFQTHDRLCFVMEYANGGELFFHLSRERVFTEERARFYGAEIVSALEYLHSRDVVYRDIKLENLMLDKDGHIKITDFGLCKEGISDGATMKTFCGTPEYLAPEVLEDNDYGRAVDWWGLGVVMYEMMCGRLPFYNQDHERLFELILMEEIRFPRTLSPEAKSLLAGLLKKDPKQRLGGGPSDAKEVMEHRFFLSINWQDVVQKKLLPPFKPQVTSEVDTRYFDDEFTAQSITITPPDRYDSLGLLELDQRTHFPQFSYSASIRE

[11] = biological target: Bromodomain-containing protein 2 (Homo sapiens) (UniProt P25440); test: Selectivity interaction (Human bromodomain panel (DSF assay)) EUB0000233b BRD2
Chain of Bromodomain-containing protein 2 (Homo sapiens) (P25440 whole entry, looked up): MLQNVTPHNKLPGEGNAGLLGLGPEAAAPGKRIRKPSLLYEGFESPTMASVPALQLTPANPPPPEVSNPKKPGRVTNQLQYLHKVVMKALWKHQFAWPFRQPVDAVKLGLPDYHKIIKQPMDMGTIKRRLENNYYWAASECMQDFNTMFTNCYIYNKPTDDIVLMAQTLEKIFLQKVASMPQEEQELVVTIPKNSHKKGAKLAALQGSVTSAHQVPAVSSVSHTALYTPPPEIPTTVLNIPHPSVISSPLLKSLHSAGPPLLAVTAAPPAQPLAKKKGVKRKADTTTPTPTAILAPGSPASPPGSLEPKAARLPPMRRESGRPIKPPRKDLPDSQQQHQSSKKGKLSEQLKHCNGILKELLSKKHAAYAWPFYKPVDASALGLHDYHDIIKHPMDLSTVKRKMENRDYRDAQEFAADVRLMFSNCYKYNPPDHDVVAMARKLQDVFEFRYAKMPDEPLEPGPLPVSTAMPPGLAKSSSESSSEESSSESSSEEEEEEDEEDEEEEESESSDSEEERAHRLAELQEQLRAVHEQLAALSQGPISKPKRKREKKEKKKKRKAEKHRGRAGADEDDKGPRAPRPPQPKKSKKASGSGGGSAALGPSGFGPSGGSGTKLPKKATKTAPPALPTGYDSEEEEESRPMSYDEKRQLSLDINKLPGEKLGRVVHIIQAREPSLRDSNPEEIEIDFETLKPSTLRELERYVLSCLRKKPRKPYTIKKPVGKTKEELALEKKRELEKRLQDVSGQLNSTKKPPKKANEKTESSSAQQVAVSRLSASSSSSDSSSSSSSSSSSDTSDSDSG

[12] = biological target: Dual specificity protein kinase CLK2 (Homo sapiens, UniProt P49760); test: Selectivity interaction (KinomeScan (DiscoverX)) EUB0000045b CLK2
Chain of Dual specificity protein kinase CLK2 (P49760 whole entry, looked up): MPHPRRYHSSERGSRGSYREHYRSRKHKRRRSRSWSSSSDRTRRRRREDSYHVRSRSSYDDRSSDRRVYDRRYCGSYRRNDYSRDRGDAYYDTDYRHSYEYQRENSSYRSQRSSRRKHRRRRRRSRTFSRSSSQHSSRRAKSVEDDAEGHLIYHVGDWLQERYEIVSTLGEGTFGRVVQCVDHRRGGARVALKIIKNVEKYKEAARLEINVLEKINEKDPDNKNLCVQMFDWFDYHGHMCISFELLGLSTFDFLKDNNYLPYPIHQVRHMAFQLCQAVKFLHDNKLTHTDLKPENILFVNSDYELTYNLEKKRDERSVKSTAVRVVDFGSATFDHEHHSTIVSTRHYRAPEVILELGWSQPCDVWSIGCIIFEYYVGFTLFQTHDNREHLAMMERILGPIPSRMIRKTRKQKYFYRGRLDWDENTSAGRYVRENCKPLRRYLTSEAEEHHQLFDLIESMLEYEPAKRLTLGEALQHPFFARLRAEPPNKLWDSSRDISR

[13] = biological target: AP2-associated protein kinase 1 (Homo sapiens, UniProt Q2M2I8); test: Selectivity interaction (KinomeScan (DiscoverX)) EUB0000655a AAK1; conditions: at 10 µM
[14] = biological target: Cyclin-dependent kinase 5 (Homo sapiens, UniProt Q00535); test: Selectivity interaction (KinomeScan (DiscoverX)) EUB0000655a CDK5; conditions: at 10 µM
[15] = biological target: Protein-tyrosine kinase 2-beta (Homo sapiens) (UniProt Q14289); test: Selectivity interaction (ActivX KiNativ screen (ex vivo kinase selectivity in human PBMCs)) EUB0001619a PTK2B; type: cell-based; conditions: PBMC, at 1 µM
Chain of Protein-tyrosine kinase 2-beta (Homo sapiens) (Q14289 whole entry, looked up): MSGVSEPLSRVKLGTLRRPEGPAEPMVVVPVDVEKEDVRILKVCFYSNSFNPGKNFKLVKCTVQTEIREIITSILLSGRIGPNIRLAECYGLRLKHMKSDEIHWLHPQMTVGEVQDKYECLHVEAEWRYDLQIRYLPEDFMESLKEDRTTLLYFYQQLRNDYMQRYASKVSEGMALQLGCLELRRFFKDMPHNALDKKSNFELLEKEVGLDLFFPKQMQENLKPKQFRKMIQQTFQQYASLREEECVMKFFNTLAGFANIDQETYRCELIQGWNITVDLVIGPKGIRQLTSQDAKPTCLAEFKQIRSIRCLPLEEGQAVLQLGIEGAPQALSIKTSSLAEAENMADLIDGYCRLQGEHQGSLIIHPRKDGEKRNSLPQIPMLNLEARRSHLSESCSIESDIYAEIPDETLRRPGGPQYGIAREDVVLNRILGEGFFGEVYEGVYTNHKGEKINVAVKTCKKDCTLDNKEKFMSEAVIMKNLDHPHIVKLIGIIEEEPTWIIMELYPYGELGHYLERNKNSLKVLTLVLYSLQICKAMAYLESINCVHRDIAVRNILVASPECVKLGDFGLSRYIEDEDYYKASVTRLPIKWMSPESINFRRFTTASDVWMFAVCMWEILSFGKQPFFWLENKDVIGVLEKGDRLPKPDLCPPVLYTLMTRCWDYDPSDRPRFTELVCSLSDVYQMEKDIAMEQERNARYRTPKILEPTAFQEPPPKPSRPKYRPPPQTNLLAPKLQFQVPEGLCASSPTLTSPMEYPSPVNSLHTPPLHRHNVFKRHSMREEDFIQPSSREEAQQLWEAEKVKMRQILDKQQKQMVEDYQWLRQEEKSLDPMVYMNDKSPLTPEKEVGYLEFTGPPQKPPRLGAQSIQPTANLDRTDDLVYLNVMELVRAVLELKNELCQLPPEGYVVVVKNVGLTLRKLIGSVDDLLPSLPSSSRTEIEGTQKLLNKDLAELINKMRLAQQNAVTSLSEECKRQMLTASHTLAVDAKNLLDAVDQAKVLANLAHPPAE

[16] = biological target: Serine/threonine-protein kinase SBK1 (Homo sapiens) (UniProt Q52WX2); test: Selectivity interaction (KinomeScan (DiscoverX)) EUB0000607a SBK1; conditions: at 10 µM
Chain of Serine/threonine-protein kinase SBK1 (Homo sapiens) (Q52WX2 whole entry): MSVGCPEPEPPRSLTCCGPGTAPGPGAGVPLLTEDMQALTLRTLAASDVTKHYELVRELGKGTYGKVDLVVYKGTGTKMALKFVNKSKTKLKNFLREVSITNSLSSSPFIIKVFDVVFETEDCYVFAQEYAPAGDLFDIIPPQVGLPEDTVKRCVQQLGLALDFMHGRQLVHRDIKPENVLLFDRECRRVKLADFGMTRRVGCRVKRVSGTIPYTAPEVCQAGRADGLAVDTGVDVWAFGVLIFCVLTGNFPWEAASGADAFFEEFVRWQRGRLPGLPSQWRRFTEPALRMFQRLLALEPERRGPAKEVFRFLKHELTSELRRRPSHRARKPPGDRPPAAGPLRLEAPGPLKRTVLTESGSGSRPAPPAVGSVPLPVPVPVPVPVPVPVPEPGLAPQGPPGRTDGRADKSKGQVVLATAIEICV

[17] = biological target: Mitogen-activated protein kinase 11 (Homo sapiens) (UniProt Q15759); test: Selectivity interaction (KinomeScan (DiscoverX)) EUB0000666a MAPK11; conditions: at 10 µM
Chain of Mitogen-activated protein kinase 11 (Homo sapiens) (Q15759 whole entry): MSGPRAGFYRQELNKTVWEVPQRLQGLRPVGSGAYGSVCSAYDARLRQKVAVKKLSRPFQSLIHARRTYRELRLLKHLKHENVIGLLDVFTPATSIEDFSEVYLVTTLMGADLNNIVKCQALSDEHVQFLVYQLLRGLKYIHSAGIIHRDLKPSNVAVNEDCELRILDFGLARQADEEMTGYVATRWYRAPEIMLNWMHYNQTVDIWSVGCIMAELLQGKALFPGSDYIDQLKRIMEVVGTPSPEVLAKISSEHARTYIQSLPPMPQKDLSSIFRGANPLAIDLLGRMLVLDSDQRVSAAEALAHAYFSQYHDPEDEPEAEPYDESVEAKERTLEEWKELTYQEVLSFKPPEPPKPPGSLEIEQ

Structure (SMILES): COc1cc(Nc2nc(C)cc(-c3cnn4nc(OC)ccc34)n2)cc(C(F)(F)F)c1
- % of control [1]: 77%

- % of inhibition [2]: 28.7%
- % of inhibition ([3]; at 0.01 µM): 6%
- % of inhibition ([3]; at 0.04 µM): 0%
- % of inhibition ([3]; at 0.2 µM): -2.1%
- % of inhibition ([3]; at 1 µM): -3.6%
- % of inhibition ([3]; at 5 µM): -0.9%
- % of inhibition [4]: 26.6%
Structure (SMILES): CC[C@@H]1[C@H](F)C(=O)N[C@@H]1COc1nccc2cc(C(N)=O)c(OC)cc12 [ZIMLOVISERTIB]

- % of control [5]: 3.54%
Structure (SMILES): Cn1cc(-n2cnc3c(NCc4nc5cc(Cl)c(Cl)cc5[nH]4)nc(N4CCOCC4)nc32)cn1

- % of control [6]: 100%
Structure (SMILES): CCN(CC)CCCCNc1ncc2cc(-c3cc(OC)cc(OC)c3)c(NC(=O)NC(C)(C)C)nc2n1

Structure (SMILES): COc1cc(N(C)c2ccnc3ccc(C(F)(F)F)cc23)cc(OC)c1OC
- % binding [7]: 85%

Structure (SMILES): Nc1cnc(N2CCc3cc(S(=O)(=O)Nc4c(F)cc(Cl)cc4F)cc(N4CCCC4=O)c32)nc1 [TP-020n]
- % of control [8]: 89%

- % of control ([9]; at 1 µM): 95%
- % of control ([9]; at 5 µM): 81%
Structure (SMILES): C=CC(=O)Nc1cccc(C(=O)Nc2ccc(Nc3cc(-c4[nH]c(SC)nc4C)ccn3)cc2)c1

Structure (SMILES): CCC(=O)N1CCN(c2ccc(-n3c(=O)ccc4cnc5ccc(-c6cnc7ccccc7c6)cc5c43)cc2C(F)(F)F)CC1
- % of control [10]: 100%

- dTM [11]: < 2 K
Structure (SMILES): CN(C)CCCOc1ccc(-c2cc(NCCCn3cccn3)nc(S(C)(=O)=O)n2)cc1

Structure (SMILES): C=CC(=O)Nc1cc(-n2c(=O)ccc3cnc4ccc(-c5ccc(NS(C)(=O)=O)cc5)cc4c32)ccc1C
- % of control ([12]; at 1 µM): 100%
- % of control ([12]; at 10 µM): 50%

Structure (SMILES): CN(C)CCOc1ccc(-c2nc(-c3ccncc3)c(-c3ccc4c(c3)CC/C4=N\O)[nH]2)cc1
- % of control [13]: 76%
- % of control [14]: 100%

Structure (SMILES): N#Cc1cccc(-c2c[nH]c3ncnc(N4CCOCC4)c23)c1
- % of inhibition [15]: 3%

Structure (SMILES): CNC(=O)Nc1ccc(-c2nc(N3CC4CCC(C3)O4)c3cnn(C4CCC5(CC4)OCCO5)c3n2)cc1
- % of control [16]: 100%

Structure (SMILES): O=C(NOC[C@H](O)CO)c1ccc(F)c(F)c1Nc1ccc(I)cc1F
- % of control [17]: 100%
